From patent publication EP0306904A2, “Phosphoric acid diesters and salts thereof” (Senju Pharmaceutical Co., Ltd., priority 1987, dated 1989)

Columns and labels:
[1] = test system: lens; experiment: Anti-oxidative activity in a model employing UV-induced oxidation of the lens
[2] = test system: mixture micelles, which were prepared from phospholipid (egg lecithin) and ethanol; experiment: Anti-oxidative activity: oxidation of mixture micelles (egg lecithin and ethanol) by ferrous-ion/ascorbic acid, thiobarbituric acid readout; type: biochemical; conditions: for Rate of inhibition (%): 25 °C, 15 min, ferrous sulfate/sodium ascorbate; for inhibition of oxidation: summary in words of the micelle oxidation results
Experimental: Anti-oxidative activity of the compounds prepared in example 1 and example 4 were determined using, as an index, oxidation of mixture micelles, which were prepared from phospholipid (egg lecithin) and ethanol, by ferrous-ion/ascorbic acid
To a solution of approx. 78 mg of egg lecithin in 2 ml of ethanol was added gradually 5 mM HEPES buffer solution (pH 7.2), under sonication (50 W) and ice-cooling, to make a 100-ml suspension. To 1,000 µ l of the suspension were added 200 µ l of 2.6 x 10⁻⁴ M solution of one of the test compounds in 50 v/v % ethanol, 50 µ l of 5.0 x 10⁻⁵ M sodium ascorbate solution in water and 50 µ l of 2.5 x 10⁻⁶ M ferrous sulfate solution in water. The mixture was placed in a water bath at 25 °C for 15 min for oxidation. Instantly after the reaction, 50 µ l of 0.1 % hydroquinone solution in ethanol was added to stop the reaction. To the mixture were added 200 µ l of 20 w/v % trichloroacetic acid and 2,000 µ l of 50 v/v % acetic acid containing thiobarbituric acid (Merck) at the concentration of 0.35 %, followed by heating for 15 min under reflux at 100 °C. After cooling, absorp tion within the range of 450-600 nm was measured by spectrophotography, within which range increase in absorbance at approx. 530-540 nm was determined. […]

[3] = Final concentration 4.0 x 10⁻⁵ (unit not given; M)
[4] = Final concentration 4.0 x 10⁻⁶ (unit not given; M)

SMILES	inhibition of accumulation of malonedialdehyde [1]	Rate of inhibition (%) [2, 3] [%]	Rate of inhibition (%) [2, 4] [%]	inhibition of oxidation [2]
Cc1c(C)c2c(c(C)c1OP(=O)([O-])OC1=C(O)[C@@H]([C@@H](O)CO)OC1=O)CCC(C)(CCCC(C)CCCC(C)CCCC(C)CCCC(C)C)O2.[K+] (stereo partly drawn) [Example 4, potassium salt of phosphoric acid (L-ascorbic acid-2-0)(2,5,7,8-tetramethyl-2-(4,8,12,16-tetramethylheptadecyl)chromanyl-6) ester]	significant inhibition	99.90	95.22	nearly complete inhibition of oxidation
Cc1c(C)c2c(c(C)c1OP(=O)([O-])OC1=C(O)[C@@H]([C@@H](O)CO)OC1=O)CCC(C)(CCCC(C)CCCC(C)C)O2.[K+] (stereo partly drawn) [Example 1, potassium salt of phosphoric acid (L-ascorbic acid-2-0)(2,5,7,8-tetramethyl-2-(4,8-dimethylnonyl)chromanyl-6) ester]	significant inhibition	94.44	89.57	nearly complete inhibition of oxidation
